This assay concerns the target T1, human β3 adrenergic receptor (Homo sapiens, UniProt P13945).
T1 construct: expressed in transfected cells; host or cells: Chinese hamster ovary (CHO) cells, stably transfected
In words: Beta-3 agonist in vitro functional assay: cAMP production (LANCE TR-FRET) in CHO cells stably transfected with the cloned β3 receptor. Format: cell-based. As to conditions: read-out: Human β3 agonist functional activity. The essentials:
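CHO cells stably expressing the cloned receptor, in HEPES-buffered HBSS with BSA and 0.6 mM IBMX, 6,000 cells/well, exposed to compound for 30 min at RT. cAMP read by LANCE TR-FRET against a cAMP standard curve. Isoproterenol defines maximal stimulation.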
(cAMP levels reflect the balance of adenylyl cyclase and phosphodiesterase activity.)

The mark [1] stands for this setting: Table 8, Beta-3 agonist in vitro functional assay.
The mark [2] stands for this setting: Table 12, human β3 functional activity given as ranges.
Where [3] appears, read: Table 10, Beta-3 agonist in vitro functional assay.
The mark [4] stands for this setting: Table 7, cAMP, CHO cells, ranges as given for Tables 6 and 7.
Setting [5] is: Table 9, Beta-3 agonist in vitro functional assay.

Where two headings read alike, the source gives them in different places.

T1 sequence (P13945 whole entry): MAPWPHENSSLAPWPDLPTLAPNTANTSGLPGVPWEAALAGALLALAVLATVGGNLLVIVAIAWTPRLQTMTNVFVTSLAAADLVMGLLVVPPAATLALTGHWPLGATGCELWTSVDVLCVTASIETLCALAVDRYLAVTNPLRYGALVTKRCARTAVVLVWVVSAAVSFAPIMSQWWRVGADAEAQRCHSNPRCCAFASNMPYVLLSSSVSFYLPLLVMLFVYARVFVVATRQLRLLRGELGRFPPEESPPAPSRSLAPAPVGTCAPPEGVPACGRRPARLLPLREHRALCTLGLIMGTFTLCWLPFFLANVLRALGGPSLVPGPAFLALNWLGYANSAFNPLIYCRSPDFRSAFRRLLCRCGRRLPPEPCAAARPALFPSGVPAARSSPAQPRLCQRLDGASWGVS

Take `CC1(C)CC2(CCN(C(=O)c3ccc(C[C@@H]4CC[C@H]([C@H](O)c5ccccc5)N4)cc3)CC2)C(=O)O1` [Example 293]: the EC50 under setting [1] was 1 to 9.9 nM.

Consider `Cc1ccc2c(c1)NC(=O)C21CCN(C(=O)c2ccc(C[C@@H]3CC[C@H]([C@H](O)c4ccccc4)N3)cc2)CC1` [Example 300], for which, under setting [1], the EC50 was 10 to 99.9 nM. The same measure, in the same setting: next, `O=C1CC2(CCN(C(=O)c3ccc(C[C@@H]4CC[C@H]([C@H](O)c5ccccc5)N4)cc3)CC2)Oc2ccc(-c3nnn[nH]3)cc21` [Example 325]: 10 to 99.9 nM.

On to `CC(c1ccn(C)n1)N1CCN(C(=O)c2ccc(CC3CCC(C(O)c4ccccc4)N3)cc2)CC1` (single isomer, unassigned) [Example 577], for which, under setting [2], the EC50 is 1 to 9.9 nM. `CC(C(=O)NC1(c2ccccn2)CC1)N1CCN(C(=O)c2ccc(C[C@@H]3CC[C@H]([C@H](O)c4ccccc4)N3)cc2)CC1` (stereo partly drawn) [Example 470]: the EC50 under setting [3] was in the range of 10 to 99.9 nM. Turning to `N#CC1(c2ccccn2)C2CN(C(=O)c3ccc(C[C@@H]4CC[C@H]([C@H](O)c5ccccc5)N4)cc3)CC21` (stereo partly drawn) [Example 238], the EC50 under setting [4] fell in the range of 10 to 99.9 nM. Regarding `O=C(c1ccc(C[C@@H]2CC[C@H]([C@H](O)c3ccccc3)N2)cc1)N1CCC(c2cccc(F)n2)CC1` [Example 112], the EC50 (Table 5, cAMP, CHO cells) fell in the range of 10 to 99.9 nM. On to `C[C@@H]1CN(C(=O)c2ccc(C[C@@H]3CC[C@H]([C@H](O)c4ccccc4)N3)cc2)C[C@H](C)N1Cc1ccccn1` [Example 533], for which, under “Table 11, cAMP, CHO cells”, the EC50 is 100 to 999 nM. As to `CC(c1ncco1)N1CCN(C(=O)c2ccc(CC3CCC(C(O)c4ccccc4)N3)cc2)CC1` (single isomer, unassigned) [Example 583], the EC50 under setting [2] fell in the range of 10 to 99.9 nM. With `O=C(c1ccc(C[C@@H]2CC[C@H]([C@H](O)c3ccccc3)N2)cc1)N1CCC(c2nc(-c3cccnc3)no2)CC1` [Example 82], the EC50 (Table 5, cAMP, CHO cells) lay in the range of 100 to 999 nM. Same read-out and setting: for `O=C(c1ccc(C[C@@H]2CC[C@H]([C@H](O)c3ccccc3)N2)cc1)N1CCC(S(=O)(=O)c2cccc(F)c2)CC1` [Example 130] the value was 1 to 9.9 nM. For the molecule `CCOC(=O)C1CCCN(C(=O)c2ccc(C[C@@H]3CC[C@H]([C@H](O)c4ccccc4)N3)cc2)C1` (stereo partly drawn) [Example 31], the EC50 (Table 4, cAMP, CHO cells) is 10 to 99.9 nM. `CC(c1cnccn1)N1CCN(C(=O)c2ccc(C[C@@H]3CC[C@H]([C@H](O)c4ccccc4)N3)cc2)CC1` (stereo partly drawn) [Example 428]: the EC50 under setting [5] was 10 to 99.9 nM.

In the case of `CCC(c1ccccn1)N1CCN(C(=O)c2ccc(CC3CCC(C(O)c4ccccc4)N3)cc2)CC1` (single isomer, unassigned) [Example 587], the EC50 under setting [2] fell in the range of 10 to 99.9 nM. For the molecule `O=C(c1ccc(C[C@@H]2CC[C@H]([C@H](O)c3cccnc3)N2)cc1)N1CCC(n2nccn2)CC1` [Example 94], under “Table 5, cAMP, CHO cells”, the EC50 was in the range of 100 to 999 nM. For `CC(c1ncccc1Cl)N1CCN(C(=O)c2ccc(CC3CCC(C(O)c4ccccc4)N3)cc2)CC1` (single isomer, unassigned) [Example 594], the EC50 under setting [2] lay within 1 to 9.9 nM.

In the case of `CO[C@@H]1CCN(C(=O)c2ccc(C[C@@H]3CC[C@H]([C@H](O)c4ccccc4)N3)cc2)C1` [Example 7], for the setting “Table 4, cAMP, CHO cells”, the EC50 fell in the range of 100 to 999 nM.

Regarding `CC1CC2(CCN(C(=O)c3ccc(CC4CCC(C(O)c5ccccc5)N4)cc3)CC2)C(=O)O1` (single isomer, unassigned) [Example 562], the EC50 under setting [2] was in the range of 1 to 9.9 nM. Turning to `CC1COC(=O)C12CCN(C(=O)c1ccc(C[C@@H]3CC[C@H]([C@H](O)c4ccccc4)N3)cc1)CC2` (stereo partly drawn) [Example 296], the EC50 under setting [1] lay within 1 to 9.9 nM.

For `O=C(c1ccc(C[C@@H]2CC[C@H]([C@H](O)c3ccccc3)N2)cc1)N1CCC(COc2cnccn2)CC1` [Example 161], the EC50 (Table 5, cAMP, CHO cells) was in the range of 10 to 99.9 nM. As for `O=C(c1ccc(C[C@@H]2CC[C@H]([C@H](O)c3ccccc3)N2)cc1)N1CCC2(CC1)CC(c1ccc(F)cc1)CO2` (stereo partly drawn) [Example 310], the EC50 under setting [1] was in the range of 100 to 999 nM. On to `O=C(c1ccc(C[C@@H]2CC[C@H]([C@H](O)c3ccccc3)N2)cc1)N1CC2CN(Cc3ccccn3)CC2C1` (stereo partly drawn) [Example 17], for which the EC50 (Table 4, cAMP, CHO cells) was 100 to 999 nM. For `O=C(c1ccc(C[C@@H]2CC[C@H]([C@H](O)c3ccccc3)N2)cc1)N1CCCN(c2nccn3ccnc23)CC1` [Example 552], the EC50 (Table 11, cAMP, CHO cells) fell in the range of 1 to 9.9 nM. With `CC(c1ncccc1F)N1CCN(C(=O)c2ccc(C[C@@H]3CC[C@H]([C@H](O)c4ccccc4)N3)cc2)CC1` (stereo partly drawn) [Example 425], under setting [5], the EC50 was in the range of 10 to 99.9 nM. On to `CCS(=O)(=O)C1CCN(C(=O)c2ccc(C[C@@H]3CC[C@H]([C@H](O)c4ccccc4)N3)cc2)CC1` [Example 124], for which the EC50 (Table 5, cAMP, CHO cells) lay in the range of 1 to 9.9 nM. Regarding `CC(c1ncccc1Cl)N1CCN(C(=O)c2ccc(CC3CCC(C(O)c4ccccc4)N3)cc2)CC1` (single isomer, unassigned) [Example 593], the EC50 under setting [2] fell in the range of 1 to 9.9 nM. For the molecule `CC(C)NC(=O)C(C)N1CCN(C(=O)c2ccc(C[C@@H]3CC[C@H]([C@H](O)c4ccccc4)N3)cc2)CC1` (stereo partly drawn) [Example 437], the EC50 under setting [3] lay within 100 to 999 nM.

With `O=C(OCc1ccccc1)C1CCN(C(=O)c2ccc(C[C@@H]3CC[C@H]([C@H](O)c4ccccc4)N3)cc2)CC1` [Example 119], for the setting “Table 5, cAMP, CHO cells”, the EC50 was 10 to 99.9 nM. Regarding `CC(C(=O)NCc1nccn1C)N1CCN(C(=O)c2ccc(C[C@@H]3CC[C@H]([C@H](O)c4ccccc4)N3)cc2)CC1` (stereo partly drawn) [Example 463], under setting [3], the EC50 was in the range of 100 to 999 nM. For the molecule `COc1ccc2c(c1)C(=O)CC1(CCN(C(=O)c3ccc(C[C@@H]4CC[C@H]([C@H](O)c5cccnc5)N4)cc3)CC1)S2` [Example 329], the EC50 under setting [1] is 10 to 99.9 nM. For the molecule `CC[C@@H](C)NC(=O)C(C)N1CCN(C(=O)c2ccc(C[C@@H]3CC[C@H]([C@H](O)c4ccccc4)N3)cc2)CC1` (stereo partly drawn) [Example 440], under setting [3], the EC50 was 10 to 99.9 nM. As to `C[C@H]1CN(C(=O)c2ccc(C[C@@H]3CC[C@H]([C@H](O)c4ccccc4)N3)cc2)CCN1Cc1n[nH]c2ccccc12` [Example 532], the EC50 (Table 11, cAMP, CHO cells) lay within 10 to 99.9 nM. As to `O=C(c1ccc(C[C@@H]2CC[C@H]([C@H](O)c3ccccc3)N2)cc1)N1CCC(n2cc(-c3ccccc3)[nH]c2=O)CC1` [Example 84], the EC50 (Table 5, cAMP, CHO cells) is 10 to 99.9 nM. Take `CN(C)C1CCN(C(=O)c2ccc(C[C@@H]3CC[C@H]([C@H](O)c4ccccc4)N3)cc2)C1` (stereo partly drawn) [Example 9]: the EC50 (Table 4, cAMP, CHO cells) lay in the range of 100 to 999 nM. For `CC(C1CCN(C(=O)c2ccc(C[C@@H]3CC[C@H]([C@H](O)c4ccccc4)N3)cc2)CC1)n1ncccc1=O` (stereo partly drawn) [Example 165], the EC50 (Table 5, cAMP, CHO cells) is 10 to 99.9 nM. Same read-out and setting: next, `O=C(c1ccc(C[C@@H]2CC[C@H]([C@H](O)c3ccccc3)N2)cc1)N1CCC(Cn2cnccc2=O)CC1` [Example 149]: 100 to 999 nM. Turning to `O=C(c1ccc(C[C@@H]2CC[C@H]([C@H](O)c3ccccc3)N2)cc1)N1CCC2(CC1)CCN(Cc1ccccc1)C2=O` [Example 255], the EC50 under setting [1] was 1 to 9.9 nM.

For `CC(C(=O)N(C)CCO)N1CCN(C(=O)c2ccc(C[C@@H]3CC[C@H]([C@H](O)c4ccccc4)N3)cc2)CC1` (stereo partly drawn) [Example 519], the EC50 under setting [3] was in the range of 100 to 999 nM. Take `O=C(c1ncco1)C1CCN(C(=O)c2ccc(C[C@@H]3CC[C@H]([C@H](O)c4ccccc4)N3)cc2)CC1` [Example 120]: for the setting “Table 5, cAMP, CHO cells”, the EC50 lay within 10 to 99.9 nM.

As to `O=C(c1ccc(CC2CCC(C(O)c3ccccc3)N2)cc1)N1CC2C(C1)C2Cn1ccnn1` (stereo not drawn) [Example 233], the EC50 under setting [4] lay in the range of 100 to 999 nM. As to `CCN(CC)C(=O)C(C)N1CCN(C(=O)c2ccc(C[C@@H]3CC[C@H]([C@H](O)c4ccccc4)N3)cc2)CC1` (stereo partly drawn) [Example 516], the EC50 under setting [3] was in the range of 100 to 999 nM. As for `O=C1OCCC1N1CCN(C(=O)c2ccc(CC3CCC(C(O)c4ccccc4)N3)cc2)CC1` (single isomer, unassigned) [Example 603], under setting [2], the EC50 is 1 to 9.9 nM.

For the origin of these results see patent US8354403B2, “Pyrrolidine derived beta 3 adrenergic receptor agonists” (Merck Sharp & Dohme Corp., priority 2009, dated 2013).
